Measurements from paper PMC11249012 (Journal of Medicinal Chemistry, 2024).

Test system: hyperacetylation of tubulin, H3K9 and H3K27
Assay: Western blot of tubulin and histone H3 hyperacetylation in 4TO7 cells
Type: cell-based, mouse
Settings: hybrids 10 μM, SAHA 100 nM, 6 h
Description: The potential for compounds as HDACi’s can be rapidly tested in cells in culture by monitoring the hyperacetylation of histone H3 and tubulin. H3 acetylation is controlled by multiple class I enzymes, and the class IIb enzyme HDAC6 regulates tubulin acetylation.[36]−[39] […] (Figure 4A).
Figure 4 Evidence for HDAC inhibition in 4T1 and 4TO7 TNBC cells. Western blots and quantification of triplicate biological replicates analyzing the effects of 1,25D (100 nM), SAHA (100 nM), and hybrids (10 μM) on hyperacetylation of tubulin (A,D), H3K9 (B,E), and H3K27 (C,F) in 4T1 (A–C) and 4TO7 cells (D–F).
After 6 h treatments, 4T1, 4T07, or B16-F10 cells were solubilized in lysis buffer (20 mM Tris, pH 8, 150 mM NaCl, 1% Triton X-100, 3.5 mM SDS, and 13 mM deoxycholic acid), and proteins were separated on a 4–15% Tris/glycine/SDS gel (Bio-Rad). Then, the proteins were transferred to a nitrocellulose membrane, followed by blocking in 5% skim milk in Tris-buffered saline (TBS, 1×) solution. […] Finally, signals were detected using Clarity ECL substrates (Bio-Rad) and a ChemiDoc Imaging System. Changes in protein levels were quantified relative to control using Image Lab software (version 6.0.1) after normalization to GAPDH. […]

CCC(CC)(c1ccc(C(=O)NCCCCC(=O)NO)cc1)c1ccc(OCC(O)C(C)(C)C)c(C)n1 (stereo not shown) [ZG-126, 4-(3-(5-(2-Hydroxy-3,3-dimethylbutoxy)-6-methylpyridin-2-yl)pentan-3-yl)-N-(5-(hydroxyamino)-5-oxopentyl)benzamide]
tubulin and histone hyperacetylation: induced higher levels of tubulin and histone hyperacetylation than SAHA
